Reference: the supplement of paper PMC10307832

What was measured:
Assay in all cases: relative viability (nuclei count vs DMSO), 5 days (fraction); higher = more cells survive
EKVX = test system: EKVX
Method in brief: (§1)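 For relative viability, nuclei counts in treated wells were divided by those in vehicle wells. Lung cancer cell lines had been pin-tool dosed in 1536-well plates the day after seeding and cultured for 5 days, then fixed and stained in one step (final 0.05% Triton X-100, 1% formaldehyde, 1 ug/ml Hoechst) and imaged at 4×. Doses were one drug alone or a fixed anchor-drug dose plus five library-drug doses (not always all listed) in √10 steps, and values are duplicate-plate medians.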

NCI-H1563 = test system: NCI-H1563
Method in brief: as §1

EMC-BAC-2 = test system: EMC-BAC-2
Method in brief: as §1

NCI-H322M = test system: NCI-H322M
Method in brief: as §1

LK-2 = test system: LK-2
Method in brief: as §1

NCI-H520 = test system: NCI-H520
Method in brief: as §1

NCI-H727 = test system: NCI-H727
Method in brief: as §1

CAL-12T = test system: CAL-12T
Method in brief: as §1

ABC-1 = test system: ABC-1
Method in brief: as §1

NCI-H358 = test system: NCI-H358
Method in brief: as §1

PC-3 [JPC-3] = test system: PC-3 [JPC-3]
Method in brief: as §1

BEN = test system: BEN
Method in brief: as §1

NCI-H1651 = test system: NCI-H1651
Method in brief: as §1

NCI-H838 = test system: NCI-H838
Method in brief: as §1

COR-L 105 = test system: COR-L 105
Method in brief: as §1

LU99A = test system: LU99A
Method in brief: as §1

201T = test system: 201T
Method in brief: as §1

NCI-H460 = test system: NCI-H460
Method in brief: as §1

NCI-H2023 = test system: NCI-H2023
Method in brief: as §1

HCC-44 = test system: HCC-44
Method in brief: as §1

HCC-15 = test system: HCC-15
Method in brief: as §1

Cc1cn(-c2cc(NC(=O)c3ccc(C)c(Nc4nccc(-c5cccnc5)n4)c3)cc(C(F)(F)F)c2)cn1 [Nilotinib] + C[C@]1(O)C[C@@H](c2nc(-c3ccc4ccc(-c5ccccc5)nc4c3)c3c(N)nccn32)C1 [Linsitinib] (partner 1 µM)
relative viability (EKVX; first compound 0.001 µM): 0.866
relative viability (EKVX; first compound 0.003162 µM): 1.26
relative viability (EKVX; first compound 0.01 µM): 1.62
relative viability (EKVX; first compound 0.03162 µM): 0.955
relative viability (EKVX; first compound 0.1 µM): 1.09
relative viability (NCI-H1563; first compound 0.001 µM): 1.13
relative viability (NCI-H1563; first compound 0.003162 µM): 1.17
relative viability (NCI-H1563; first compound 0.01 µM): 1.17
relative viability (NCI-H1563; first compound 0.03162 µM): 1.15
relative viability (EMC-BAC-2; first compound 0.001 µM): 0.812
relative viability (EMC-BAC-2; first compound 0.003162 µM): 0.954
relative viability (EMC-BAC-2; first compound 0.01 µM): 1.1
relative viability (EMC-BAC-2; first compound 0.03162 µM): 0.66
relative viability (EMC-BAC-2; first compound 0.1 µM): 0.839
relative viability (NCI-H322M; first compound 0.001 µM): 0.747
relative viability (NCI-H322M; first compound 0.003162 µM): 1.03
relative viability (NCI-H322M; first compound 0.03162 µM): 0.76
relative viability (NCI-H322M; first compound 0.1 µM): 0.932
relative viability (LK-2; first compound 0.001 µM): 0.517
relative viability (LK-2; first compound 0.003162 µM): 0.515
relative viability (LK-2; first compound 0.01 µM): 0.442
relative viability (LK-2; first compound 0.03162 µM): 0.405
relative viability (LK-2; first compound 0.1 µM): 0.487
relative viability (NCI-H520; first compound 0.001 µM): 0.792
relative viability (NCI-H520; first compound 0.01 µM): 1.2
relative viability (NCI-H520; first compound 0.03162 µM): 0.91
relative viability (NCI-H520; first compound 0.1 µM): 0.928
relative viability (NCI-H727; first compound 0.001 µM): 0.225
relative viability (NCI-H727; first compound 0.01 µM): 0.368
relative viability (NCI-H727; first compound 0.03162 µM): 0.275
relative viability (NCI-H727; first compound 0.1 µM): 0.263
relative viability (CAL-12T; first compound 0.001 µM): 0.75
relative viability (CAL-12T; first compound 0.003162 µM): 0.771
relative viability (CAL-12T; first compound 0.01 µM): 0.946
relative viability (CAL-12T; first compound 0.03162 µM): 0.714
relative viability (CAL-12T; first compound 0.1 µM): 0.565
relative viability (ABC-1; first compound 0.001 µM): 0.985
relative viability (ABC-1; first compound 0.003162 µM): 0.862
relative viability (ABC-1; first compound 0.01 µM): 0.724
relative viability (ABC-1; first compound 0.03162 µM): 0.683
relative viability (ABC-1; first compound 0.1 µM): 0.554
relative viability (NCI-H358; first compound 0.001 µM): 0.67
relative viability (NCI-H358; first compound 0.003162 µM): 0.893
relative viability (NCI-H358; first compound 0.01 µM): 0.847
relative viability (NCI-H358; first compound 0.03162 µM): 0.474
relative viability (NCI-H358; first compound 0.1 µM): 0.612
relative viability (PC-3 [JPC-3]; first compound 0.001 µM): 0.997
relative viability (PC-3 [JPC-3]; first compound 0.003162 µM): 1.1
relative viability (PC-3 [JPC-3]; first compound 0.01 µM): 1.09
relative viability (PC-3 [JPC-3]; first compound 0.03162 µM): 1.01
relative viability (PC-3 [JPC-3]; first compound 0.1 µM): 0.927
relative viability (BEN; first compound 0.001 µM): 0.95
relative viability (BEN; first compound 0.003162 µM): 0.997
relative viability (BEN; first compound 0.01 µM): 1.26
relative viability (BEN; first compound 0.1 µM): 1.05
relative viability (NCI-H1651; first compound 0.001 µM): 1.08
relative viability (NCI-H1651; first compound 0.003162 µM): 1.42
relative viability (NCI-H1651; first compound 0.01 µM): 1.32
relative viability (NCI-H1651; first compound 0.03162 µM): 0.879
relative viability (NCI-H1651; first compound 0.1 µM): 1.06
relative viability (NCI-H838; first compound 0.001 µM): 0.989
relative viability (NCI-H838; first compound 0.003162 µM): 1.37
relative viability (NCI-H838; first compound 0.01 µM): 1.39
relative viability (NCI-H838; first compound 0.03162 µM): 0.967
relative viability (NCI-H838; first compound 0.1 µM): 0.968
relative viability (COR-L 105; first compound 0.001 µM): 0.913
relative viability (COR-L 105; first compound 0.01 µM): 1
relative viability (COR-L 105; first compound 0.03162 µM): 0.849
relative viability (COR-L 105; first compound 0.1 µM): 0.823
relative viability (LU99A; first compound 0.001 µM): 0.468
relative viability (LU99A; first compound 0.003162 µM): 0.59
relative viability (LU99A; first compound 0.01 µM): 0.593
relative viability (LU99A; first compound 0.03162 µM): 0.568
relative viability (LU99A; first compound 0.1 µM): 0.318
relative viability (201T; first compound 0.001 µM): 0.942
relative viability (201T; first compound 0.003162 µM): 1.06
relative viability (201T; first compound 0.01 µM): 1.12
relative viability (NCI-H460; first compound 0.001 µM): 0.586
relative viability (NCI-H460; first compound 0.003162 µM): 1.1
relative viability (NCI-H460; first compound 0.01 µM): 1.75
relative viability (NCI-H460; first compound 0.03162 µM): 0.319
relative viability (NCI-H460; first compound 0.1 µM): 0.507
relative viability (NCI-H2023; first compound 0.001 µM): 0.74
relative viability (NCI-H2023; first compound 0.003162 µM): 0.735
relative viability (NCI-H2023; first compound 0.01 µM): 0.798
relative viability (NCI-H2023; first compound 0.03162 µM): 0.666
relative viability (NCI-H2023; first compound 0.1 µM): 0.525
relative viability (HCC-44; first compound 0.001 µM): 0.624
relative viability (HCC-44; first compound 0.003162 µM): 0.768
relative viability (HCC-44; first compound 0.01 µM): 0.821
relative viability (HCC-44; first compound 0.03162 µM): 0.615
relative viability (HCC-44; first compound 0.1 µM): 0.739
relative viability (HCC-15; first compound 0.001 µM): 0.874
relative viability (HCC-15; first compound 0.003162 µM): 1.01
relative viability (HCC-15; first compound 0.01 µM): 0.987
relative viability (HCC-15; first compound 0.03162 µM): 0.743
relative viability (HCC-15; first compound 0.1 µM): 0.744
